# Assay results from PMC12888861, “Antibacterial activity of enmetazobactam against Acinetobacter spp.: a molecular dissection of mechanism of action and resistance determinants” (Antimicrobial Agents and Chemotherapy, 2025).
# Key:
# [1] = system: carbapenem-susceptible A. baumannii isolates (n = 54); experiment: MIC, broth microdilution (EUCAST), carbapenem-susceptible A. baumannii isolates; format: cell-based, Acinetobacter baumannii; settings: for MIC: in combinations ETZ fixed at 8 mg/L
# Source text: (§1) The bacterial strains used in this study comprised 208 clinical isolates from the Spanish National Acinetobacter spp. 2020 Multicenter Collection, which was previously characterized in detail by our research group, including whole-genome sequencing, phylogenetics studies, clonal dynamics, and resistance mechanisms ([2], [29]). Additionally, a collection of A. baumannii ATCC 17978 transformants coding the blaOXA-23, blaOXA-24/40, blaOXA-51, blaOXA-58, blaOXA-143, and blaOXA-201 genes, previously constructed and described by our group ([30]), was used to determine the activity of enmetazobactam against strains carrying the main CHDLs of A. baumannii.
# (§2) The antimicrobial susceptibility of the 208 Acinetobacter spp. isolates was assessed using the broth microdilution method, as described in the European Committee on Antimicrobial Susceptibility Testing (EUCAST) v.15 guidelines (http://www.eucast.org/clinical_breakpoints). […] MICs for enmetazobactam alone were assessed as well. […] Subsequently, MIC testing was also conducted with a collection of A. baumannii ATCC 17978 transformants expressing clinically relevant OXA-like carbapenemase genes.
# (§3) The A. baumannii ATCC 19606 strain was used as the reference strain in all susceptibility experiments, in duplicate assays. Antibiotics were purchased from Sigma-Aldrich, except enmetazobactam and durlobactam, which were obtained from Advanz Pharma and MedChemExpress, respectively.
# [2] = system: carbapenem-resistant A. baumannii (CRAB) isolates (n = 67); experiment: MIC, broth microdilution (EUCAST), carbapenem-resistant A. baumannii isolates; format: cell-based, Acinetobacter baumannii; settings: ETZ fixed 8 mg/L in combinations; for MIC: Acinetobacter baumannii
# Source text: as §1, §2, §3
# [3] = Acinetobacter baumannii, carbapenem-susceptible A. baumannii isolates (n = 54), ETZ fixed 8 mg/L in combinations
# [4] = […], ETZ fixed 8 mg/L in combinations
smiles,measurement,setting,value
CO/N=C(\C(=O)N[C@@H]1C(=O)N2C(C(=O)[O-])=C(C[N+]3(C)CCCC3)CS[C@H]12)c1csc(N)n1 [cefepime],MIC distribution 0.12,[1],0
same,MIC,"[1]; Acinetobacter baumannii, isolate Ab1, ST 164, ADC-6, OXA-91",2 µg/mL
same,MIC,"[1]; Acinetobacter baumannii, isolate Ab11, ST 239, ADC-2, OXA-51",2 µg/mL
same,MIC,"[1]; Acinetobacter baumannii, isolate Ab34, ST 2182, ADC-2, OXA-130",2 µg/mL
same,MIC,"[1]; Acinetobacter baumannii, isolate Ab38, ST 866, ADC-2, OXA-385",8 µg/mL
same,MIC,"[1]; Acinetobacter baumannii, isolate Ab40, ST 2176, ADC-2, OXA-64",2 µg/mL
same,MIC,"[1]; Acinetobacter baumannii, isolate Ab50, ST 2176, ADC-2, OXA-64",2 µg/mL
same,MIC,"[1]; Acinetobacter baumannii, isolate Ab57, ST 1470, ADC-58, OXA-106",2 µg/mL
same,MIC,"[1]; Acinetobacter baumannii, isolate Ab58, ST 6, ADC-2, OXA-94",4 µg/mL
same,MIC,"[1]; Acinetobacter baumannii, isolate Ab61, ST 1639, ADC-7, OXA-64",1 µg/mL
same,MIC,"[1]; Acinetobacter baumannii, isolate Ab62, ST 265, ADC-2, OXA-91",1 µg/mL
same,MIC,"[1]; Acinetobacter baumannii, isolate Ab67, ST 1, ADC-11, OXA-69",2 µg/mL
same,MIC,"[1]; Acinetobacter baumannii, isolate Ab79, ST 106, ADC-11, OXA-78",1 µg/mL
same,MIC,"[1]; Acinetobacter baumannii, isolate Ab80, ST 2182, ADC-6, OXA-208",1 µg/mL
same,MIC,"[1]; Acinetobacter baumannii, isolate Ab81, ST 25, ADC-79, OXA-64",2 µg/mL
same,MIC,"[1]; Acinetobacter baumannii, isolate Ab93, ST 25, ADC-79, OXA-64",2 µg/mL
same,MIC,"[1]; Acinetobacter baumannii, isolate Ab95, ST 582, ADC-5, OXA-317",2 µg/mL
same,MIC,"[1]; Acinetobacter baumannii, isolate Ab96, ST 582, ADC-5, OXA-317",1 µg/mL
same,MIC,"[1]; Acinetobacter baumannii, isolate Ab100, ST 145, ADC-58, OXA-343",2 µg/mL
same,MIC,"[1]; Acinetobacter baumannii, isolate Ab110, ST 1623, ADC-3, OXA-70",8 µg/mL
same,MIC,"[1]; Acinetobacter baumannii, isolate Ab112, ST 193, ADC-like, OXA-120",0.5 µg/mL
same,MIC,"[1]; Acinetobacter baumannii, isolate Ab124, ST 2176, ADC-2, OXA-64",1 µg/mL
same,MIC,"[1]; Acinetobacter baumannii, isolate Ab127, ST 2176, ADC-2, OXA-64",2 µg/mL
same,MIC,"[1]; Acinetobacter baumannii, isolate Ab128, ST 2176, ADC-2, OXA-64",1 µg/mL
same,MIC,"[1]; Acinetobacter baumannii, isolate Ab130, ST 32, ADC-79, OXA-100",4 µg/mL
same,MIC,"[1]; Acinetobacter baumannii, isolate Ab131, ST 687, ADC-like, OXA-208",0.5 µg/mL
same,MIC,"[1]; Acinetobacter baumannii, isolate Ab132, ST 1112, ADC-79, OXA-89",4 µg/mL
same,MIC,"[1]; Acinetobacter baumannii, isolate Ab136, ST 2183, ADC-like, OXA-66",2 µg/mL
same,MIC,"[1]; Acinetobacter baumannii, isolate Ab139, ST 54, ADC-like, OXA-365",2 µg/mL
same,MIC,"[1]; Acinetobacter baumannii, isolate Ab142, ST 1, ADC-like, OXA-69",16 µg/mL
same,MIC,"[1]; Acinetobacter baumannii, isolate Ab143, ST 1328, ADC-76, OXA-408",2 µg/mL
same,MIC,"[1]; Acinetobacter baumannii, isolate Ab149, ST 1112, ADC-6, OXA-407",2 µg/mL
same,MIC,"[1]; Acinetobacter baumannii, isolate Ab150, ST 2184, ADC-like, OXA-64",2 µg/mL
same,MIC,"[1]; Acinetobacter baumannii, isolate Ab152, ST 132, ADC-2, OXA-120",2 µg/mL
same,MIC,"[1]; Acinetobacter baumannii, isolate Ab158, ST 2034, ADC-2, OXA-217",0.5 µg/mL
same,MIC,"[1]; Acinetobacter baumannii, isolate Ab163, ST 132, ADC-2, OXA-120",0.5 µg/mL
same,MIC,"[1]; Acinetobacter baumannii, isolate Ab167, ST 1623, ADC-like, OXA-345",1 µg/mL
same,MIC,"[1]; Acinetobacter baumannii, isolate Ab168, ST 1470, ADC-75, OXA-402",1 µg/mL
same,MIC,"[1]; Acinetobacter baumannii, isolate Ab170, ST 2110, ADC-4, OXA-338",2 µg/mL
same,MIC,"[1]; Acinetobacter baumannii, isolate Ab172, ST 2185, ADC-5, OXA-217",1 µg/mL
same,MIC,"[1]; Acinetobacter baumannii, isolate Ab185, ST 2, ADC-26, OXA-66",4 µg/mL
same,MIC,"[1]; Acinetobacter baumannii, isolate Ab187, ST 105, ADC-2, OXA-430",0.5 µg/mL
same,MIC,"[1]; Acinetobacter baumannii, isolate Ab188, ST 203, ADC-6, OXA-217, PDC-1",0.5 µg/mL
same,MIC,"[1]; Acinetobacter baumannii, isolate Ab189, ST 1405, ADC-3, OXA-120",1 µg/mL
same,MIC,"[1]; Acinetobacter baumannii, isolate Ab190, ST 2186, ADC-6, OXA-413",1 µg/mL
same,MIC,"[1]; Acinetobacter baumannii, isolate Ab193, ST 164, ADC-6, OXA-91",1 µg/mL
same,MIC,"[1]; Acinetobacter baumannii, isolate Ab195, ST 1, ADC-11, OXA-69",2 µg/mL
same,MIC,"[1]; Acinetobacter baumannii, isolate Ab200, ST 1336, ADC-2, OXA-51",2 µg/mL
same,MIC,"[1]; Acinetobacter baumannii, isolate Ab202, ST 1, ADC-11, OXA-69",2 µg/mL
same,MIC,"[1]; Acinetobacter baumannii, isolate Ab203, ST 221, ADC-6, OXA-88",1 µg/mL
same,MIC,"[1]; Acinetobacter baumannii, isolate Ab206, ST 2187, ADC-58, OXA-69",1 µg/mL
same,MIC,"[1]; Acinetobacter baumannii, isolate Ab209",1 µg/mL
same,MIC,"[1]; Acinetobacter baumannii, isolate Ab213",1 µg/mL
same,MIC,"[1]; Acinetobacter baumannii, isolate Ab218",2 µg/mL
same,MIC,"[1]; Acinetobacter baumannii, isolate Ab220",0.5 µg/mL
same,MIC50,[1]; [3],4 µg/mL
same,MIC90,[1]; [3],8 µg/mL
same,MIC distribution 0.25,[1]; [4],0
same,MIC distribution 0.5,[1]; [4],0
same,MIC distribution 1,[1]; [4],13.0
same,MIC distribution 2,[1]; [4],44.4
same,MIC distribution 4,[1]; [4],87.0
same,MIC distribution 8,[1]; [4],94.4
same,MIC distribution 16,[1]; [4],98.1
same,MIC distribution ≤0.06,[1]; [4],0
same,MIC distribution ≥32,[1]; [4],100
same,MIC,"[2]; isolate Ab56, ST 1, ADC-75, OXA-69, OXA-23",32 µg/mL
same,MIC,"[2]; isolate Ab83, ST 25, ADC-5, OXA-64, OXA-23",64 µg/mL
same,MIC,"[2]; isolate Ab109, ST 1, ADC-75, OXA-69, OXA-23",64 µg/mL
same,MIC,"[2]; isolate Ab133, ST 2, ADC-30, OXA-66, OXA-58, TEM-12",32 µg/mL
same,MIC,"[2]; isolate Ab134, ST 2, ADC-30, OXA-66, OXA-58, TEM-12",16 µg/mL
same,MIC,"[2]; isolate Ab137, ST 85, ADC-2, OXA-94, OXA-23",64 µg/mL
same,MIC,"[2]; isolate Ab138, ST 745, ADC-30, OXA-66, OXA-58",32 µg/mL
same,MIC,"[2]; isolate Ab140, ST 85, ADC-2, OXA-94, OXA-23",32 µg/mL
same,MIC,"[2]; isolate Ab141, ST 745, ADC-30, OXA-66, OXA-58",32 µg/mL
same,MIC,"[2]; isolate Ab144, ST 745, ADC-30, OXA-66, OXA-58",32 µg/mL
same,MIC,"[2]; isolate Ab169, ST 2, ADC-30, OXA-66, OXA-23",32 µg/mL
same,MIC,"[2]; isolate Ab171, ST 2, ADC-30, OXA-66, OXA-23",32 µg/mL
same,MIC,"[2]; isolate Ab173, ST 2, ISAba1-ADC-30, OXA-66, OXA-23",≥ 128 µg/mL
same,MIC,"[2]; isolate Ab174, ST 2, ADC-30, OXA-66, OXA-23",32 µg/mL
same,MIC,"[2]; isolate Ab179, ST 2, ADC-30, OXA-66, OXA-23",64 µg/mL
same,MIC,"[2]; isolate Ab180, ST 2, ADC-30, OXA-66, OXA-24/40",16 µg/mL
same,MIC,"[2]; isolate Ab181, ST 2, ADC-30, OXA-66, OXA-23",32 µg/mL
same,MIC,"[2]; isolate Ab182, ST 2, ADC-30, OXA-66, OXA-23",16 µg/mL
same,MIC,"[2]; isolate Ab183, ST 2, ADC-30, OXA-66, OXA-23",32 µg/mL
same,MIC,"[2]; isolate Ab184, ST 2, ADC-30, OXA-66, OXA-23",≥ 128 µg/mL
same,MIC,"[2]; isolate Ab186, ST 2, ADC-30, OXA-66, OXA-23",32 µg/mL
same,MIC,"[2]; isolate Ab191, ST 2, ADC-30, OXA-66, OXA-23",32 µg/mL
same,MIC,"[2]; isolate Ab192, ST 2, ADC-30, OXA-66, OXA-23",32 µg/mL
same,MIC,"[2]; isolate Ab194, ST 2, ADC-30, OXA-66, OXA-23",32 µg/mL
same,MIC,"[2]; isolate Ab199, ST 2, ADC-30, OXA-66, OXA-23",32 µg/mL
same,MIC,"[2]; isolate Ab201, ST 2, ADC-30, OXA-66, OXA-23",64 µg/mL
same,MIC,"[2]; isolate Ab204, ST 2, ADC-30, OXA-66, OXA-23",16 µg/mL
same,MIC distribution 0.12,[2]; cumulative share of CRAB isolates (n = 67) at MIC 0.12 mg/L,0
same,MIC distribution 0.25,[2]; cumulative share of CRAB isolates (n = 67) at MIC 0.25 mg/L,0
same,MIC distribution 0.5,[2]; cumulative share of CRAB isolates (n = 67) at MIC 0.5 mg/L,0
same,MIC distribution 1,[2]; cumulative share of CRAB isolates (n = 67) at MIC 1 mg/L,0
same,MIC distribution 2,[2]; cumulative share of CRAB isolates (n = 67) at MIC 2 mg/L,0
same,MIC distribution 4,[2]; cumulative share of CRAB isolates (n = 67) at MIC 4 mg/L,1.5
same,MIC distribution 8,[2]; cumulative share of CRAB isolates (n = 67) at MIC 8 mg/L,3.0
same,MIC distribution 16,[2]; cumulative share of CRAB isolates (n = 67) at MIC 16 mg/L,22.4
same,MIC distribution 32,[2]; cumulative share of CRAB isolates (n = 67) at MIC 32 mg/L,70.1
same,MIC distribution 64,[2]; cumulative share of CRAB isolates (n = 67) at MIC 64 mg/L,97.0
